# Data taken from patent US20240101599A1, “PEPTIDE, CELL GROWTH PROMOTER, PROTEIN PRODUCTION PROMOTER, CULTURE MEDIUM, CELL GROWTH METHOD USING PEPTIDE, AND PROTEIN PRODUCTION METHOD USING PEPTIDE” (Maruhachi Muramatsu, Inc., priority 2020, published 2024).
# Peptide text beside a SMILES is read from it.
# Experiments:
# [1] = system: CHO-K1; assay: Relationship between concentration of each peptide solution and viable cell count (absorbance); type: cell-based; conditions: for Absorbance (450 nm): 5 days, MEMα without FBS, n = 3 average, 0 mM = 0.0000; for cell growth promotion, order of the peptides: in words, promoted in the order GEK, DGP, AGK, GPP, GGP, AEK, AGG, ASN, EGK (strongest first)
# Method: Peptides having the sequences of Gly-Glu-Lys (GEK), Asp-Gly-Pro (DGP), Ala-Gly-Lys (AGK), Gly-Pro-Pro (GPP), Gly-Gly-Pro (GGP), Ala-Glu-Lys (AEK), Ala-Gly-Gly (AGG), Ala-Ser-Asn (ASN), and Glu-Gly-Lys (EGK), and Gly-Gly-Gly (GGG) are synthesized to prepare each of peptide solutions at 10-fold concentrations shown in Tables 1 to 10.
# A cell suspension prepared such that CHO-K1 (RI KEN BioResource Research Center, cell number: RCB2330) was at 3×10^4 cells/mL was seeded in a 96-well plate at 100 μL/well and cultured in an incubator at 37° C. and 5% CO2 for 24 hours. As a culture medium, an MEMα culture medium (Gibco) containing 10% FBS was used.
# After removing the culture medium from each well and washing with the MEMα culture medium (100 μL), 90 μL of a new MEMa culture medium was dispensed into each well, and each peptide solution (10 μL) was added (total 100 μL/well) such that final concentrations were within a range of 0 mM to 5 mM as shown in Tables 1 to 10 to perform culture for 5 days. A similar culture test was performed using a system containing neither peptide nor FBS as a comparative sample. After culturing for 5 days, 10 μL/well of a viable cell count measurement reagent SF (Nacalai Tesque Inc.) was added, and a color reaction was carried out in an incubator at 37° C. and 5% CO2 for 2 hours to measure an absorbance at 450 nm with a plate reader. A reference wavelength was 630 nm. It was confirmed that the absorbance at 450 nm correlated with the cell number.
# The above preparation, culture, and measurement were performed with n=3, and Tables 1 to 10 and FIGS. 1 to 10 show the absorbance at the concentration of each peptide solution.
# [2] = system: CHO-K1; assay: Cell growth test of each peptide on coating agent for 5 days; type: cell-based; design: Viability, 1 / Viability, 2 / Viability, 3 / Viability, Mean: unit not given here; conditions: 2.0 mM Ala-Gly-Lys, 2.1 mM Gly-Glu-Lys, 2.5 mM Gly-Gly-Gly, poly-L-lysine coating; for Cells cell count, Mean / Viability, Mean: mean n=3, 2.2 mM Asp-Gly-Pro; for Cells cell count, 1 / Viability, 1: replicate 1, 2.2 mM Asp-Gly-Pro; for Cells cell count, 2 / Viability, 2: replicate 2, 2.2 mM Asp-Gly-Pro; for Cells cell count, 3 / Viability, 3: replicate 3, 2.2 mM Asp-Gly-Pro
# Method: Peptides having the sequences of Asp-Gly-Pro (DGP), Ala-Gly-Lys (AGK), Gly-Glu-Lys (GEK), and Gly-Gly-Gly (GGG) were synthesized to prepare each peptide solution such that the concentration was a concentration at which the cell number increased the most within a range of 0 mM to 5 mM. In other words, Asp-Gly-Pro (DGP) was adjusted to 22 mM, Ala-Gly-Lys (AGK) was adjusted to 20 mM, Gly-Glu-Lys (GEK) was adjusted to 21 mM, and Gly-Gly-Gly (GGG) was adjusted to 25 mM, and an amount of 1/10 of the total culture medium volume was added to each well immediately before the cell culture test such that final concentrations were 2.2 mM, 2.0 mM, 2.1 mM, and 2.5 mM, respectively. Poly-L-lysine (Peptide Institute, Inc., Poly-L-Lysine Hydrochloride, code: 3075) was prepared to 0.1 mg/mL, and 200 μL was dispensed into each well of a 24-well plate, which was left to stand in an incubator at 37° C. for 2 hours. After removing the residual liquid with an aspirator, rinsing was performed with distilled water, irradiation was performed with a UV lamp in a clean bench without a lid, and drying was performed overnight to sterilize. A cell suspension prepared such that CHO-K1 (RIKEN BioResource Research Center, cell number: RCB2330) was at 4×10^4 cells/mL was seeded in each well of a 24-well plate at 500 μL/well and cultured in an incubator at 37° C. and 5% CO2 for 24 hours. As a culture medium, an MEMα culture medium (Gibco) containing 10% FBS was used.
# After removing the culture medium from each well and washing with the MEMα culture medium (500 μL), 450 μL of a new MEMα culture medium was dispensed into each well, and each peptide solution (50 μL) was added (total 500 μL/well) to perform culture for 5 days. The cells were recovered to count the cell number. A similar culture test was performed using a system containing neither peptide nor FBS as a comparative sample.
# The culture medium in each well was recovered in a 1.5 mL tube to be rinsed with 200 μL of MEMα, and the rinsed liquid was also recovered in the same 1.5 mL tube. Thereafter, 100 μL of trypsin was added and incubated for 3 minutes. After rinsing with 300 μL of MEMα containing 10% FBS, the rinsed liquid was also recovered in the same 1.5 mL tube. After rinsing again with 200 μL of MEMα containing 10% FBS, the rinsed liquid was also recovered in the same 1.5 mL tube.
# A centrifugation operation was performed on the cells recovered in the 1.5 mL tube. The centrifugation conditions were 1,000 rpm, 10 minutes, and 4° C.
# The supernatant was removed, and 300 μL of Cold PBS (phosphate buffered saline) was added to perform a centrifugation operation under the same conditions. The present operation was repeated twice.
# Suspension was carried out with 100 μL of Binding Buffer, and 2 μL of propidium iodide (PI) was added and stirred in the tube to cause a reaction for 15 minutes at room temperature and with light shielding. Thereafter, the viable cell count and the cell viability were measured with a flow cytometer.
# The above preparation, culture, and measurement were performed with n=3. Table 15 and FIG. 15 show the viable cell count in each peptide solution, and Table 16 and FIG. 16 show the cell viability in each peptide solution.
molecule,measurement,setting,value
Asp-Gly-Pro [DGP],Absorbance (450 nm),[1]; 0.138 mM peptide,0.0957
same,Absorbance (450 nm),[1]; 0.278 mM peptide,0.2464
same,Absorbance (450 nm),[1]; 0.555 mM peptide,0.4127
same,Absorbance (450 nm),[1]; 1.11 mM peptide,0.5617
same,Absorbance (450 nm),[1]; 2.22 mM peptide,0.7657
same,Absorbance (450 nm),[1]; 4.44 mM peptide,0.4004
same,"cell growth promotion, order of the peptides",[1],cell growth was promoted
same,"Cells cell count, Mean",[2],14.9353 ×10^4
same,"Viability, Mean",[2],89.6
same,"Cells cell count, 1",[2],15.8220 ×10^4
same,"Viability, 1",[2],91.5
same,"Cells cell count, 2",[2],14.8590 ×10^4
same,"Viability, 2",[2],91.2
same,"Cells cell count, 3",[2],14.1250 ×10^4
same,"Viability, 3",[2],86.0
Gly-Pro-Pro [GPP],Absorbance (450 nm),[1]; 0.137 mM peptide,0.1163
same,Absorbance (450 nm),[1]; 0.276 mM peptide,0.2303
same,Absorbance (450 nm),[1]; 0.550 mM peptide,0.4117
same,Absorbance (450 nm),[1]; 1.10 mM peptide,0.6443
same,Absorbance (450 nm),[1]; 2.20 mM peptide,0.5700
same,Absorbance (450 nm),[1]; 4.40 mM peptide,0.3620
same,"cell growth promotion, order of the peptides",[1],cell growth was promoted
"NCCCC[C@H](NC(=O)[C@H](CCC(=O)O)NC(=O)CN)C(=O)O [GEK, Gly-Glu-Lys] (H-Gly-Glu-Lys-OH; N-terminus and C-terminus assumed)",Absorbance (450 nm),[1]; 0.128 mM peptide,−0.0903
same,Absorbance (450 nm),[1]; 0.257 mM peptide,0.0657
same,Absorbance (450 nm),[1]; 0.512 mM peptide,0.3020
same,Absorbance (450 nm),[1]; 1.02 mM peptide,0.6377
same,Absorbance (450 nm),[1]; 2.05 mM peptide,1.0050
same,Absorbance (450 nm),[1]; 4.10 mM peptide,0.5757
same,"cell growth promotion, order of the peptides",[1],cell growth was promoted
same,"Cells cell count, Mean",[2],16.5830 ×10^4
same,"Viability, Mean",[2],90.3
same,"Cells cell count, 1",[2],15.7190 ×10^4
same,"Viability, 1",[2],90.2
same,"Cells cell count, 2",[2],16.9875 ×10^4
same,"Viability, 2",[2],90.3
same,"Cells cell count, 3",[2],17.0425 ×10^4
same,"Viability, 3",[2],90.5
"C[C@H](N)C(=O)NCC(=O)N[C@@H](CCCCN)C(=O)O [AGK, Ala-Gly-Lys] (H-Ala-Gly-Lys-OH; N-terminus and C-terminus assumed)",Absorbance (450 nm),[1]; 0.123 mM peptide,0.0180
same,Absorbance (450 nm),[1]; 0.247 mM peptide,0.1440
same,Absorbance (450 nm),[1]; 0.494 mM peptide,0.3360
same,Absorbance (450 nm),[1]; 0.99 mM peptide,0.5380
same,Absorbance (450 nm),[1]; 1.97 mM peptide,0.6613
same,Absorbance (450 nm),[1]; 3.95 mM peptide,0.4693
same,"cell growth promotion, order of the peptides",[1],cell growth was promoted
same,"Cells cell count, Mean",[2],2.6217 ×10^4
same,"Viability, Mean",[2],25.0
same,"Cells cell count, 1",[2],2.6860 ×10^4
same,"Viability, 1",[2],26.4
same,"Cells cell count, 2",[2],3.0605 ×10^4
same,"Viability, 2",[2],26.4
same,"Cells cell count, 3",[2],2.1185 ×10^4
same,"Viability, 3",[2],22.1
